# Where two headings read alike, the source gives them in different places.
# How the values were obtained:
# [1] = Vitamin C osmosis into the human skin (Test Example 1), iontophoretic introduction, HPLC of epidermis and dermis; conditions: human thigh skin, five hours after five minutes iontophoretic introduction
# Method: <Experiment Procedure> • (1) Vitamin C was iontophoretically introduced for five minutes. • (2) After five hours, 5 mm of the skin was punched, separated into epidermis and dermis, and freeze dried. • (3) The Vitamin C concentration in the epidermis and dermis was determined by HPLC. • 1) The freeze dry samples were dissolved in 500 □1 of a moving layer solvent. • 2) The solution was ultrasonically treated for 10 minutes, • 3) filtered through a 0.2 mm filter, and • 4) subjected to HPLC measurement.
# Moving layer: A 0.08 M CH3COOH—CH3COONa buffer solution (pH 5.0) containing 2.8 mM Mn-hexyl amine, 0.1 mM disodium edetate, and 2% methanol. • Measuring amount: 20 □1 • Flow rate: 0.8 ml/min. • Wavelength: 254 nm • Column: ODS column oven: 40° C.
# [2] = rat, in vivo
# Method: The present inventor introduced a 0.1% diluted solution of C-ascorbic acid (hereinafter referred to as Vitamin C) into the back skin of a rat by simple external application and iontophoresis to compare osmosis of vitamin C using a scintillation counter and autoradiography.
# A 0.1% vitamin C solution was applied to the back skin of a hairless rat for 20 seconds by iontophoresis or for 10 minutes by simple external application. Tissue samples were collected at prescribed intervals (Samples of iontophoresis application: control, 0.5 h, 1 h, 2 h, 3 h, and 6 h; samples of simple external application: control, 1 h, 2 h, 3 h, and 6 h). Each collected sample was cut into two pieces, one of which was separated into epidermis and dermis for use as a scintillation counter sample. A lyophilized section was prepared from the other piece of the sample and developed for autoradiography analysis. The vitamin C concentration in each tissue was determined using IR analysis.
# [3] = Vitamin C osmosis comparison using autoradiography (Test Example 3); format: in vivo, hairless rat
# Text: Vitamin C osmosis comparison using autoradiography.
# These figures (photographs) display a cross-section of rat skin tissue, wherein black dots in the epidermis and dermis indicate vitamin C.
compound,measurement,setting,value
"O=C1O[C@H]([C@@H](O)CO)C(O)=C1O [Vitamin C, C-ascorbic acid]","Dermis (ppm), Vitamin C concentration",[1],0.05 ppm
same,"Epidermis (ppm), Vitamin C concentration",[1],0.02 ppm
same,osmosis by iontophoresis application relative to simple external application,[2]; hairless,about 30 times
same,time at which concentration reached maximum,[2]; hairless,0.5 h
same,time at which concentration reached maximum,[2],one
same,penetration from the epidermis into the dermis (autoradiography),"[3]; iontophoresis application, rat back skin (FIG. 7)",started to penetrate at 0.5 hour and more abundantly after one hour
same,penetration from the epidermis into the dermis (autoradiography),"[3]; simple external application, rat back skin (FIG. 6)",progressively penetrated from the epidermis into the dermis over time
